The experiment deals with Platelet-activating factor receptor (Homo sapiens, UniProt P25105). The experiment is described as follows: Antagonistic activity for inhibition of [3H]PAF receptor binding to washed human platelet membranes.

pIC50: −log10 of the molar value.

Chain of Platelet-activating factor receptor (P25105 whole entry): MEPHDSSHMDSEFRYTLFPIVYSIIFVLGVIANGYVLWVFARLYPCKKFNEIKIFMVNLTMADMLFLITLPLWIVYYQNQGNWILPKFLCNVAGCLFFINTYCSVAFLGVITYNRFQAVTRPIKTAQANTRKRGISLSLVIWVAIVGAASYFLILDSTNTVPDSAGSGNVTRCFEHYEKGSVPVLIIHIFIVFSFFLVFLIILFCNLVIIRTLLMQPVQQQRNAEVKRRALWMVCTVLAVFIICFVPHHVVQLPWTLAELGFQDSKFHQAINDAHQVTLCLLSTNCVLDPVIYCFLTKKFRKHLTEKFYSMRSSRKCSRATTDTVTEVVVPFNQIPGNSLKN

The term pIC50 denotes the IC50 on a negative log10 scale, so that one unit is a factor of ten. Read a high pIC50 as a small IC50. `Cc1nc2ccccc2n1Cc1ccc(C(=O)N(C)C2CCCCC2)cc1`: the pIC50 was 6.30.

As to `O=C([C@@H]1CSC(c2cccnc2)N1)N1CCN(CCCc2ccccc2)CC1` (stereo partly drawn), the negative logarithm of the IC50 (pIC50) is 8.64. This pIC50 lies 2.34 log units higher than the previous one.

With `CCOC[C@H](CC(C)C)NS(=O)(=O)c1ccc(Cn2c(C)nc3cnccc32)cc1`, the pIC50 is 10.82. This pIC50 lies 2.18 log units higher than the previous one.

These data come from ChEMBL document CHEMBL1126425, “A partial pharmacophore for the platelet activating factor (PAF) receptor” (Bioorg Med Chem Lett, 1992).
